Test [1] has as its target Ephrin type-A receptor 5 (Homo sapiens) (UniProt P54756). Put plainly: Inhibition of human recombinant EphA5 at 40 nM in presence of ATP by radiometric assay relative to control.
The target of test [2] is Proto-oncogene tyrosine-protein kinase receptor Ret (Homo sapiens) (UniProt P07949). Put plainly: Inhibition of human recombinant RET at 40 nM in presence of ATP by radiometric assay relative to control.
Test [3] deals with Serine/threonine-protein kinase N2 (Homo sapiens) (UniProt Q16513). The experiment in a line: Inhibition of human recombinant PKN2 at 40 nM related to control ULK1.
Serine/threonine-protein kinase N2 (Homo sapiens), sequence (Q16513 whole entry, looked up): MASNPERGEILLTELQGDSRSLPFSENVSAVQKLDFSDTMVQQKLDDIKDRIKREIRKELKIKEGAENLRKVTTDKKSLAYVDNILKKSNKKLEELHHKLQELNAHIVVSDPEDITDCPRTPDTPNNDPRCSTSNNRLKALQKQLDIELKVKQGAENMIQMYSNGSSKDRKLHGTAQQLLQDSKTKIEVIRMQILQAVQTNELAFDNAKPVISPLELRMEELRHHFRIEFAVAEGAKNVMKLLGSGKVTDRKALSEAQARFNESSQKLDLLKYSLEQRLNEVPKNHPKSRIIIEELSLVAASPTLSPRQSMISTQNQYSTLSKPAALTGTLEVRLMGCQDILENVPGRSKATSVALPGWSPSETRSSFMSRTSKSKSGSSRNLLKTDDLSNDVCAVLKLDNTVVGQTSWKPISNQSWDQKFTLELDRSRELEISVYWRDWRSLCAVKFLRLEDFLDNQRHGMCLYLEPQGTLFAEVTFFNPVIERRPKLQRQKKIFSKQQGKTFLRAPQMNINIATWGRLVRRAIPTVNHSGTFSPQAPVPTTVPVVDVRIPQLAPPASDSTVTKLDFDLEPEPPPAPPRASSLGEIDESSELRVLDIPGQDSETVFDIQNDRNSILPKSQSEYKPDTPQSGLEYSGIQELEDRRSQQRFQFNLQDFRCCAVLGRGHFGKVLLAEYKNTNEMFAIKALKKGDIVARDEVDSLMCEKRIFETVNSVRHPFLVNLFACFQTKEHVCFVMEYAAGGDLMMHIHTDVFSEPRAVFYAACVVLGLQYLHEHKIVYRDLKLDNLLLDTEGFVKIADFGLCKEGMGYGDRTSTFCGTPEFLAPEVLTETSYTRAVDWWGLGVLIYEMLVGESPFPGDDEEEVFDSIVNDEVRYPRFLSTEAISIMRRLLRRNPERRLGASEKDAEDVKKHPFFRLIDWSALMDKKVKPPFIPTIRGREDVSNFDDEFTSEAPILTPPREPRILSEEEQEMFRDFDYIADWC
Test [4] deals with Transient receptor potential cation channel subfamily M member 7 (Homo sapiens) (UniProt Q96QT4). Put plainly: Inhibition of human recombinant ChaK1 at 500 nM in presence of ATP by radiometric assay relative to control.
Transient receptor potential cation channel subfamily M member 7 (Homo sapiens), sequence (Q96QT4 whole entry): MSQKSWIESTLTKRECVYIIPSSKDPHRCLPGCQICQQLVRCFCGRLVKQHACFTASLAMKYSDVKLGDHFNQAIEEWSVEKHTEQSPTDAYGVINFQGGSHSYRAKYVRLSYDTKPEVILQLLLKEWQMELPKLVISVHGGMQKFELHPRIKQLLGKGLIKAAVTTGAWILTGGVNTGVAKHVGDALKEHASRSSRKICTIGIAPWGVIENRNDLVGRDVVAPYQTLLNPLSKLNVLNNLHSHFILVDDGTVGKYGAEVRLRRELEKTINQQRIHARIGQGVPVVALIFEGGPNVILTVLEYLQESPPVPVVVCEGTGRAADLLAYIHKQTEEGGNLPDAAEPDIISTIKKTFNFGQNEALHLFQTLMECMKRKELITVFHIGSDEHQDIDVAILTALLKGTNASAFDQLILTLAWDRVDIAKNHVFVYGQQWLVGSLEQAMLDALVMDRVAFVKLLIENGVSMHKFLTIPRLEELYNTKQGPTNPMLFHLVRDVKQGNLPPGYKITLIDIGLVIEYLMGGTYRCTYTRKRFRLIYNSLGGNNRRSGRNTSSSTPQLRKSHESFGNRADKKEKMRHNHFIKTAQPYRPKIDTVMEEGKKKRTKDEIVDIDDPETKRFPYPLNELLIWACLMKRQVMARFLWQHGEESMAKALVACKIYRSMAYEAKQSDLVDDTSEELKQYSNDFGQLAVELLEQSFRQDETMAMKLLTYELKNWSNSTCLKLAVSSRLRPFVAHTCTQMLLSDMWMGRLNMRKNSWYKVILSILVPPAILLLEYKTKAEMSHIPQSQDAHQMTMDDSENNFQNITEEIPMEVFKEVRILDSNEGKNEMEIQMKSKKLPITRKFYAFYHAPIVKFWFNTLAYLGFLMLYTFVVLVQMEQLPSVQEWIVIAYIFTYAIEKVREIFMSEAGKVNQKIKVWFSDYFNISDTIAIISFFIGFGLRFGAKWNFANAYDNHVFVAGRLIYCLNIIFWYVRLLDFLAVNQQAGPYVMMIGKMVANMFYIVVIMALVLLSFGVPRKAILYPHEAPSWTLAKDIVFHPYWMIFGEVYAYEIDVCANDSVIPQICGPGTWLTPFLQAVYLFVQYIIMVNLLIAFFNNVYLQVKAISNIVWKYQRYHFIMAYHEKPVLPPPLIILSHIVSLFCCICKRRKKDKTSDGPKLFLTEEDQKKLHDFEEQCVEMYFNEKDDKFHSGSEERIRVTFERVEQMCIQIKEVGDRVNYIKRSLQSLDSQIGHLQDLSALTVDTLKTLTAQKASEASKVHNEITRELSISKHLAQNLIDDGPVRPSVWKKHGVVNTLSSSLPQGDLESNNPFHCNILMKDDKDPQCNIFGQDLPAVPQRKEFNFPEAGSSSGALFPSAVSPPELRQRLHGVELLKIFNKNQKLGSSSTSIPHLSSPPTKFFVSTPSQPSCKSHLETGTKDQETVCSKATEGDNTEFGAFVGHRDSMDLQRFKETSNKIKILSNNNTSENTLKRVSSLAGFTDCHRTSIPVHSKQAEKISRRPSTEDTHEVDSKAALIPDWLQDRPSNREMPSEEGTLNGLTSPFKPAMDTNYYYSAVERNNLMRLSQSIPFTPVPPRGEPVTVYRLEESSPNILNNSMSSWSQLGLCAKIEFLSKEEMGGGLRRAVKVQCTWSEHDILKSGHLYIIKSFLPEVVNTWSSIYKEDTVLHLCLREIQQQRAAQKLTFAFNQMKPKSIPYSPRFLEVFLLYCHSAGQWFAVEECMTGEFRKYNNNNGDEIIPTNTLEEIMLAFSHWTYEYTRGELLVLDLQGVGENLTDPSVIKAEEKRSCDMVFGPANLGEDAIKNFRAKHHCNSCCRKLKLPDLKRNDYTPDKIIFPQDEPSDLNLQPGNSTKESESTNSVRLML
Test [5] has as its target Cyclin-dependent kinase 13 (Homo sapiens) (UniProt Q14004). The experiment in a line: Inhibition of human recombinant CHED at 500 nM in presence of ATP by radiometric assay relative to control.
Test [6] deals with T1, MAP kinase-activated protein kinase 5 (Homo sapiens) (UniProt Q8IW41).
T1 sequence (whole entry): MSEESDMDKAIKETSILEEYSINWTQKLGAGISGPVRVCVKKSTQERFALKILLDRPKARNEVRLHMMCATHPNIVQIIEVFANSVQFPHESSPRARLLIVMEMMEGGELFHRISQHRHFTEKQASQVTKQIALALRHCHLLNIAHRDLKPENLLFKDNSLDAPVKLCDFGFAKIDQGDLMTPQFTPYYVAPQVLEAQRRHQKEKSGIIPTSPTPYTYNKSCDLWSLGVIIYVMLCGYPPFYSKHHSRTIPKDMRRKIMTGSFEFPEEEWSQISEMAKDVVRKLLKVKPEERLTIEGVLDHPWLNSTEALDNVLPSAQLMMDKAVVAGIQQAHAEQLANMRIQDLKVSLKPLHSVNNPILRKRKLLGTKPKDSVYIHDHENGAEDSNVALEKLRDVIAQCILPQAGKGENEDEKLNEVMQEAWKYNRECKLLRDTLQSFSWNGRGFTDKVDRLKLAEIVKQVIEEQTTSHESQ
Put plainly: Inhibition of human recombinant MAPKAPK5 at 500 nM in presence of ATP by radiometric assay relative to control.

The target in test [7] is Non-receptor tyrosine-protein kinase TYK2 (Homo sapiens) (UniProt P29597). Put plainly: Inhibition of human recombinant TYK2 at 500 nM related to control ULK1.
Test [8] has as its target Dual specificity mitogen-activated protein kinase kinase 1 (Homo sapiens) (UniProt Q02750). Put plainly: Inhibition of human recombinant MAP2K1 at 15 nM in presence of ATP by radiometric assay relative to control.
The target of test [9] is Serine/threonine-protein kinase Nek4 (Homo sapiens) (UniProt P51957). The experiment in a line: Inhibition of human recombinant NEK4 at 15 nM related to control ULK1.
Serine/threonine-protein kinase Nek4 (Homo sapiens), sequence (P51957 whole entry, looked up): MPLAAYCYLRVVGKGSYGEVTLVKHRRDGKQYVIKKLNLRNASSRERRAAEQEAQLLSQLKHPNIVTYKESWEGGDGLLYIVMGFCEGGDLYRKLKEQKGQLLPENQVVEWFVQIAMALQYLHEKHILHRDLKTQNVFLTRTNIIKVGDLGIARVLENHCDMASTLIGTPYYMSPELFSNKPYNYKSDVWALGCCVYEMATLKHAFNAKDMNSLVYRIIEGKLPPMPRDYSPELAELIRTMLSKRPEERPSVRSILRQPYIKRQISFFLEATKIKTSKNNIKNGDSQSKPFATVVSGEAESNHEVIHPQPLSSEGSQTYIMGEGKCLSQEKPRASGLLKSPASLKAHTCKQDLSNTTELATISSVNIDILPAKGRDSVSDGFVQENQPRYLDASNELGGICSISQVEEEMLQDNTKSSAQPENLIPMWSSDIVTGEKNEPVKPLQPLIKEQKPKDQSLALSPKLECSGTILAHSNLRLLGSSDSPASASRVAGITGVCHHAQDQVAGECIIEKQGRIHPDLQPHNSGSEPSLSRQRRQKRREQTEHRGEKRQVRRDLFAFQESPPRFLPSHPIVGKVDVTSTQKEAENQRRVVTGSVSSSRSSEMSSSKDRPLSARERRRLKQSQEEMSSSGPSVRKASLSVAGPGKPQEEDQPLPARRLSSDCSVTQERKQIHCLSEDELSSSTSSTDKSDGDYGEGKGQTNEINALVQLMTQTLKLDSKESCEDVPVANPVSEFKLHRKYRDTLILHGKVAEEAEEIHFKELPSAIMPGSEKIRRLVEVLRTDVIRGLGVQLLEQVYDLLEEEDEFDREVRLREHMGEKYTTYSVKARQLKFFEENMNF
In test [10] the target is T2, Serine/threonine-protein kinase TAO3 (Homo sapiens) (UniProt Q9H2K8).
T2 sequence (whole entry): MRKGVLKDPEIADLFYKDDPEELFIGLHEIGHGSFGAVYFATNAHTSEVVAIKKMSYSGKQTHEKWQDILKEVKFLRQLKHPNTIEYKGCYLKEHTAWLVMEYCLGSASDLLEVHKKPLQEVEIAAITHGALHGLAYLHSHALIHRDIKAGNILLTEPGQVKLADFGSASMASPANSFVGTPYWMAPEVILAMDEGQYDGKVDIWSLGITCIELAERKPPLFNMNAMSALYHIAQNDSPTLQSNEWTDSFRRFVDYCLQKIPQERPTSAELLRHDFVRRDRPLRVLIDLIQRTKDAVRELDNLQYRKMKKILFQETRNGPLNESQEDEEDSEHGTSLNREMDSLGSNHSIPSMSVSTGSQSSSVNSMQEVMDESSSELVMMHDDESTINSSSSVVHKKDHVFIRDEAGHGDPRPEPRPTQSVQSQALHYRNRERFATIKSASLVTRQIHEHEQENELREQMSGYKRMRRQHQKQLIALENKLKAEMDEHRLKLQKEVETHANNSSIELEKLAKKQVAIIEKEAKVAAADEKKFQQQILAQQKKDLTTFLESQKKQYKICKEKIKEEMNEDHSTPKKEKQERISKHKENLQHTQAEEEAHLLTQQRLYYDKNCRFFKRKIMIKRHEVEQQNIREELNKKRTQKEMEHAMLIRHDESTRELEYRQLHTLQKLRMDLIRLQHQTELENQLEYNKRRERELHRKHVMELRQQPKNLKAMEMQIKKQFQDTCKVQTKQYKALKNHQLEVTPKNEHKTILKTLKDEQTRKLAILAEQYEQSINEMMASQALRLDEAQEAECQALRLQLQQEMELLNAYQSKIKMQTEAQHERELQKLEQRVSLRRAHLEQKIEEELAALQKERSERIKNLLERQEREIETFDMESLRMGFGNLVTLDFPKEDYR
Put plainly: Inhibition of human recombinant TAO3 at 15 nM related to control ULK1.

In test [11] the target is T3, Testis-specific serine/threonine-protein kinase 1 (Homo sapiens) (UniProt Q9BXA7).
T3 sequence (whole entry): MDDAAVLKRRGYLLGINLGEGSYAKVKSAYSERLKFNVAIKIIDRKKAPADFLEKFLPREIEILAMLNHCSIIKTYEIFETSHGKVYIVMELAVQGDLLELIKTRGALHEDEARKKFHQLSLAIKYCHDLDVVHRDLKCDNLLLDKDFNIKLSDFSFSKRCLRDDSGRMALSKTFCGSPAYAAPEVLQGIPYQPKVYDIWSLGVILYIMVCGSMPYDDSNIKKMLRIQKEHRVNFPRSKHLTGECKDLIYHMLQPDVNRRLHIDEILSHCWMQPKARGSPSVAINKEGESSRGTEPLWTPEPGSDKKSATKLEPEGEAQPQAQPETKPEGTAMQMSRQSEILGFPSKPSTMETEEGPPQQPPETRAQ
Put plainly: Inhibition of human recombinant TSSK1 at 15 nM related to control ULK1.

Proto-oncogene tyrosine-protein kinase receptor Ret (Homo sapiens), sequence (P07949 whole entry): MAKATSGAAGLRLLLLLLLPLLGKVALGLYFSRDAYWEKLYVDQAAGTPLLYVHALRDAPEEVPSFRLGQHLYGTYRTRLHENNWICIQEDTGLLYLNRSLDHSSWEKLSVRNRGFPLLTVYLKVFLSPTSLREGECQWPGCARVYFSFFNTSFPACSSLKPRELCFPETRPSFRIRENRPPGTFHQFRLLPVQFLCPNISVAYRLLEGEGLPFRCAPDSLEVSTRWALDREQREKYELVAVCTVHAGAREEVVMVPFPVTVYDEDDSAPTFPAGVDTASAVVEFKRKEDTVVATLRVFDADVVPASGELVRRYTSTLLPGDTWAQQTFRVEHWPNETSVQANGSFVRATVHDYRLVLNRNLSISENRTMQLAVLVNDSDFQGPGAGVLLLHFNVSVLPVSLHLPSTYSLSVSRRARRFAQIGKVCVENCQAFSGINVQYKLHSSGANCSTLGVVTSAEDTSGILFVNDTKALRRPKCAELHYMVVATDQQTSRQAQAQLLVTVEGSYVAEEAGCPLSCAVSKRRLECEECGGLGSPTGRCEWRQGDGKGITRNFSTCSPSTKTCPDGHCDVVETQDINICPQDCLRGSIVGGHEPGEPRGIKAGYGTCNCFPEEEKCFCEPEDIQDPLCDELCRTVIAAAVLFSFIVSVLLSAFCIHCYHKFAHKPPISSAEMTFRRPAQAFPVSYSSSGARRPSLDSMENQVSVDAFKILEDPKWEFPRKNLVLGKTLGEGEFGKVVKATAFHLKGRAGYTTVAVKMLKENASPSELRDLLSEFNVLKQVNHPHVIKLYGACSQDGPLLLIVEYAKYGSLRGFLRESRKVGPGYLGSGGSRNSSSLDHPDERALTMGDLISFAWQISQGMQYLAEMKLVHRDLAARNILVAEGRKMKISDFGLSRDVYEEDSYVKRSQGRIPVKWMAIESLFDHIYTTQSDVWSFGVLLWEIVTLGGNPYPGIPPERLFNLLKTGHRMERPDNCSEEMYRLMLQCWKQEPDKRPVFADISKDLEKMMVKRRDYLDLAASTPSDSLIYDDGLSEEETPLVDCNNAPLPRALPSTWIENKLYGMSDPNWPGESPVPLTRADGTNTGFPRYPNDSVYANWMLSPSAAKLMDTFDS

Broadly, the inhibition is the change of the read-out against control, counted positive when it falls. As for `O=C(N[C@@H](C1CC1)C(F)(F)F)c1cc(-c2cnn3cc(-c4ccc(F)cc4)cnc23)cs1`, the inhibition in test [1] and in test [2] was 0% throughout. For the same compound, the fold change (FC) in test [3] was 0.
For `CNC(=O)c1ccccc1Oc1nc(Nc2cc(OC)c(OC)c(OC)c2)ncc1Br`, the inhibition in test [4], in test [5] and in [6] was 0% each time. The fold change (FC) in [7] was 1.05.
Turning to `CC(C)[C@H](NC(=O)c1cc(-c2cnn3cc(-c4ccc(OCCN5CCCCC5)cc4)cnc23)cs1)C(F)(F)F`, the inhibition in test [8] was 7%. The fold change (FC) was 0.07 in [9], 0.01 in test [10] and 0.26 in [11].

The record behind these values is ChEMBL document CHEMBL5653631, “A Potent and Selective ULK1 Inhibitor Suppresses Autophagy and Sensitizes Cancer Cells to Nutrient Stress” (iScience, 2018).
